The values below come from patent publication US4076849A, “Control of nitrosamine formation in nitrite cured meat” (Canada Packers Limited, priority 1975, dated 1978).

For data set [1] the following is noted: in vivo; cited from earlier work.
Data set [2] in a line: Nitrosamine content after frying cured bacon slices streaked with a soya oil solution of the aromatic secondary amine. Particulars: 100 ppm. The protocol: In the case of o-methoxy-N-dodecylaminobenzene samples were tested at 100, 200 and 300 ppm levels. The controls were streaked with oil alone.
[3] abbreviates: Table III, controls (ppb): Ex 30 76.0 and 60.0, 31 29.0, 32-33 42.5, 34 32.5, 35-39 28.2, 40 17.5, 41 20.0, 42 19.1, 43-44 34.0, 45 23.0, below about 3 ppb is below accurate detection level.

Turning to `O=NN1CCCC1` [N-nitrosopyrrolidine], the “carcinogenic in tests on experimental animals” value in data set [1] is “carcinogenic”.
`CN(C)N=O` [dimethylnitrosamine]: in data set [1], the “carcinogenic in tests on experimental animals” value is recorded as “carcinogenic”.
`CCOc1ccc(NC(C)(C)C)cc1` [Example 42, p-Ethoxy-N-t-butylaminobenzene]: the “NITROSAMINES Test” value in data set [2] (setting [3]) was 2.2 ppb.
For `CCCCCCCCCCCCNc1ccccc1` [Example 47, N-Dodecylaminobenzene], the “NITROSAMINES Test” value in data set [2] (Table IV, controls (ppb): Ex 46 34.0, 47 76.0, 48-49 41.0, 50-54 36.2) worked out at 16.0 ppb.
With `CCCCCCCCCCCCNc1ccc(OC)cc1OC` [Example 45, o,p-Dimethoxy-N-dodecylaminobenzene], the “NITROSAMINES Test” value in data set [2] (setting [3]) came out at 2.5 ppb.
